Measured values: patent US20090005270A1 (priority 2005, published 2009)
Read-outs that look alike come from different tables or passages of the source.

Assays:
[1] = in vivo; cited from earlier work
human recombinant CYP2A6 [2] = target: T1, human recombinant CYP2A6 (Homo sapiens, UniProt P10635); experiment: biochemical
[3] = cited from earlier work
[4] = poor metabolizers, 15 mg dose; cited from earlier work
human recombinant CYP3A4 = human recombinant CYP3A4 (Homo sapiens, UniProt P08684); experiment: Inhibition of dibenzylfluorescein metabolism by cDNA-expressed CYP3A4 (fluorimetric); settings: read-out: IC50 (concentration that yields 50% inhibition of the metabolism of dibenzyl-fluorescein), dibenzyl-fluorescein 5 · 10^−7 M
human recombinant CYP2A6 [5] = target: T1, human recombinant CYP2A6; settings: recombinant enzyme

T1 sequence (P10635 whole entry): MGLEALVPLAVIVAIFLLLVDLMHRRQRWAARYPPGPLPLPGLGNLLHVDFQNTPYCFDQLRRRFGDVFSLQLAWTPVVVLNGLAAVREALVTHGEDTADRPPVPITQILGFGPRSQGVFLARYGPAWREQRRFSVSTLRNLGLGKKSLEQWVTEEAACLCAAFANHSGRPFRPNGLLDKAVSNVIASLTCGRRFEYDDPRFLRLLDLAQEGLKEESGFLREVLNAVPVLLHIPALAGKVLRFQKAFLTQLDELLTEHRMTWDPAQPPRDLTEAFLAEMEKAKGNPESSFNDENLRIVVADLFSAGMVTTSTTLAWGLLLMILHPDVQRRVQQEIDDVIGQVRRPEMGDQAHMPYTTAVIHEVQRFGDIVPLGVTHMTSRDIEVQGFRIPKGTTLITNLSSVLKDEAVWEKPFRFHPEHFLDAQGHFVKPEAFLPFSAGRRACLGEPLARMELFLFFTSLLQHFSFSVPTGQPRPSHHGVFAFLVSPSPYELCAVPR
Chain of human recombinant CYP3A4 (P08684 whole entry): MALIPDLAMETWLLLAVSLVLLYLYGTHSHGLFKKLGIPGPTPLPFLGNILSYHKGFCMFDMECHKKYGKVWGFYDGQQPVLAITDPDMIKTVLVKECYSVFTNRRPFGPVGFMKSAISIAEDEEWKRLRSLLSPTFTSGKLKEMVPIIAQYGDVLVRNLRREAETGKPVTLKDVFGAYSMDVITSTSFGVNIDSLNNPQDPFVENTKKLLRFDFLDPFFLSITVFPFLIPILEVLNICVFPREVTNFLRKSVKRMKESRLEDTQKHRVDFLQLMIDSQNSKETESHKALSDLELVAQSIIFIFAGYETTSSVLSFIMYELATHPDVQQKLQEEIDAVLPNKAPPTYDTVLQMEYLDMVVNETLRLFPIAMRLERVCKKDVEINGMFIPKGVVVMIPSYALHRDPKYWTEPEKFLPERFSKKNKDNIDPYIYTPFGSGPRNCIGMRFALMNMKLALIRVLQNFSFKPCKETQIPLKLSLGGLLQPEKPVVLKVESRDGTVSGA

**Q.** For `Br.COc1ccc2c(c1)[C@@]13CCCC[C@H]1[C@@H](C2)N(C)CC3.O` [Dextromethorphan, 3 Methoxy-17-methylmorphinan hydrobromide monohydrate], which “part of the dose forming minor metabolites (D-methoxymorphinane, D-hydroxmorphinane)” value [1] is on record?
**A.** Its value is “Less than 15%”.

**Q.** What about the IC50 (human recombinant CYP2A6 [2]) of the same compound?
**A.** The IC50 was 1820 nM.

**Q.** And the plasma level ([3]; fast metabolizers, 30 mg dose, four hours post ingestion)?
**A.** The plasma level was “less than 5 ng/mL”.

**Q.** And the plasma level ([3]; intermediate metabolizers, oral 30 mg, 4 hours)?
**A.** Its plasma level is 10 to 20 ng/mL.

**Q.** What about the plasma level ([3]; intermediate metabolizers, oral 30 mg, 24 hours postingestion) of the same compound?
**A.** The plasma level was “less than 5 ng/mL”.

**Q.** And the plasma level ([3]; oral 30 mg, 4 hours (continues the poor metabolizers passage of b121))?
**A.** The plasma level was “greater than 10 ng/mL”.

**Q.** What about the plasma level ([3]; oral 30 mg, 24 hours (continues the poor metabolizers passage of b121)) of the same compound?
**A.** The plasma level was “greater than 5 ng/mL”.

**Q.** What about the “ratio of metabolite to parent drug in 8 hour urine sample” value [4] of the same compound?
**A.** The value was 10 to 1.

**Q.** Which IC50 (human recombinant CYP3A4) does the source give for `COc1ccc(CCN(CCCC(C#N)(c2ccc(OC)c(OC)c2)C(C)C)CC(F)(F)F)cc1OC` (stereo not shown) [N-(2,2,2-trifluoroethyl)norverapamil] here?
**A.** The IC50 was 1930 nM.

**Q.** With `CN1CC[C@]23CCCC[C@H]2[C@H]1Cc1ccc(OCC(F)(F)F)cc13` [O-(2,2,2-trifluoroethyl)-N-methylmorphinan] as the compound, how does the IC50 (human recombinant CYP2A6 [5]) read?
**A.** Its IC50 is 425 nM.
